Source: PubChem BioAssay (NCI)
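Assay format: 96-well plates, 48-hour exposure. At the GI50, growth is halved. TGI marks complete inhibition of growth.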

Experiments:
Experiment in all cases: NCI anticancer screen, dose series, 48 h
TK-10 renal = tested on: TK-10 renal
EKVX NSCLC = tested on: EKVX NSCLC
UACC-62 melanoma = tested on: UACC-62 melanoma
HOP-92 NSCLC = tested on: HOP-92 NSCLC
MALME-3M melanoma = tested on: MALME-3M melanoma
MDA-MB-231 breast = tested on: MDA-MB-231 breast
NCI-H226 lung = tested on: NCI-H226 lung
SR leukemia = tested on: SR leukemia
SF-539 CNS = tested on: SF-539 CNS
NCI-H23 lung = tested on: NCI-H23 lung
K-562 leukemia = tested on: K-562 leukemia
COLO 205 colon = tested on: COLO 205 colon
T-47D breast = tested on: T-47D breast
HCT-116 colon = tested on: HCT-116 colon
SK-OV-3 ovarian = tested on: SK-OV-3 ovarian
SF-295 CNS = tested on: SF-295 CNS
SW-620 colon = tested on: SW-620 colon
U251 CNS = tested on: U251 CNS
IGROV1 ovarian = tested on: IGROV1 ovarian
SNB-75 CNS = tested on: SNB-75 CNS
UACC-257 melanoma = tested on: UACC-257 melanoma
SN12C renal = tested on: SN12C renal
A549 NSCLC = tested on: A549 NSCLC
HCC-2998 colon = tested on: HCC-2998 colon
MCF7 breast = tested on: MCF7 breast
HOP-62 NSCLC = tested on: HOP-62 NSCLC
BT-549 breast = tested on: BT-549 breast
SK-MEL-5 melanoma = tested on: SK-MEL-5 melanoma
OVCAR-3 ovarian = tested on: OVCAR-3 ovarian
HL-60(TB) leukemia = tested on: HL-60(TB) leukemia
OVCAR-8 ovarian = tested on: OVCAR-8 ovarian
HT29 colon = tested on: HT29 colon
NCI/ADR-RES ovarian = tested on: NCI/ADR-RES ovarian
MOLT-4 leukemia = tested on: MOLT-4 leukemia
HCT-15 colon = tested on: HCT-15 colon
UO-31 renal = tested on: UO-31 renal
NCI-H460 lung = tested on: NCI-H460 lung
CCRF-CEM leukemia = tested on: CCRF-CEM leukemia
KM12 colon = tested on: KM12 colon
RPMI-8226 leukemia = tested on: RPMI-8226 leukemia
PC-3 prostate = tested on: PC-3 prostate
OVCAR-5 ovarian = tested on: OVCAR-5 ovarian
SF-268 CNS = tested on: SF-268 CNS
RXF 393 renal = tested on: RXF 393 renal
ACHN renal = tested on: ACHN renal
SK-MEL-28 melanoma = tested on: SK-MEL-28 melanoma
OVCAR-4 ovarian = tested on: OVCAR-4 ovarian
786-0 renal = tested on: 786-0 renal
SNB-19 CNS = tested on: SNB-19 CNS
A498 renal = tested on: A498 renal
DU-145 prostate = tested on: DU-145 prostate
MDA-MB-435 = tested on: MDA-MB-435
LOX IMVI melanoma = tested on: LOX IMVI melanoma
M14 melanoma = tested on: M14 melanoma
HS 578T breast = tested on: HS 578T breast

c1ccc(CNCCN(CCNCc2ccccn2)Cc2ccc3ccccc3c2)nc1
GI50 (TK-10 renal): 1.36 µM | TGI (TK-10 renal): 6.58 µM | GI50 (EKVX NSCLC): 1.71 µM | TGI (EKVX NSCLC): 7.58 µM | GI50 (UACC-62 melanoma): 2.17 µM | TGI (UACC-62 melanoma): 4.7 µM | GI50 (HOP-92 NSCLC): 1.79 µM | TGI (HOP-92 NSCLC): 4.64 µM | GI50 (MALME-3M melanoma): 1.65 µM | TGI (MALME-3M melanoma): 3.63 µM | GI50 (MDA-MB-231 breast): 1.68 µM | TGI (MDA-MB-231 breast): 3.81 µM | GI50 (NCI-H226 lung): 1.77 µM | TGI (NCI-H226 lung): 3.53 µM | GI50 (SR leukemia): 2.88 µM | TGI (SR leukemia): 7.83 µM | GI50 (SF-539 CNS): 1.64 µM | TGI (SF-539 CNS): 3.1 µM | GI50 (NCI-H23 lung): 2.26 µM | TGI (NCI-H23 lung): 6.19 µM | GI50 (K-562 leukemia): 2.97 µM | TGI (K-562 leukemia): 8.73 µM | GI50 (COLO 205 colon): 2.27 µM | TGI (COLO 205 colon): 4.57 µM | GI50 (T-47D breast): 2.59 µM | TGI (T-47D breast): 9.06 µM | GI50 (HCT-116 colon): 2.37 µM | TGI (HCT-116 colon): 8.36 µM | GI50 (SK-OV-3 ovarian): 1.94 µM | TGI (SK-OV-3 ovarian): 5.11 µM | GI50 (SF-295 CNS): 1.42 µM | TGI (SF-295 CNS): 3.55 µM | GI50 (SW-620 colon): 2.36 µM | TGI (SW-620 colon): 6.32 µM | GI50 (U251 CNS): 2.47 µM | TGI (U251 CNS): 7.39 µM | GI50 (IGROV1 ovarian): 2.3 µM | TGI (IGROV1 ovarian): 7.5 µM | GI50 (SNB-75 CNS): 2.03 µM | TGI (SNB-75 CNS): 9.98 µM | GI50 (UACC-257 melanoma): 2.16 µM | TGI (UACC-257 melanoma): 4.69 µM | GI50 (SN12C renal): 3.21 µM | TGI (SN12C renal): 11.1 µM | GI50 (A549 NSCLC): 2.33 µM | TGI (A549 NSCLC): 5.38 µM | GI50 (HCC-2998 colon): 1.83 µM | TGI (HCC-2998 colon): 3.39 µM | GI50 (MCF7 breast): 2.86 µM | TGI (MCF7 breast): 10.5 µM | GI50 (HOP-62 NSCLC): 2.17 µM | TGI (HOP-62 NSCLC): 6.69 µM | GI50 (BT-549 breast): 2.87 µM | TGI (BT-549 breast): 10.9 µM | GI50 (SK-MEL-5 melanoma): 1.76 µM | TGI (SK-MEL-5 melanoma): 3.16 µM | GI50 (OVCAR-3 ovarian): 1.83 µM | TGI (OVCAR-3 ovarian): 3.74 µM | GI50 (HL-60(TB) leukemia): 2.4 µM | TGI (HL-60(TB) leukemia): 5.77 µM | GI50 (OVCAR-8 ovarian): 2.27 µM | TGI (OVCAR-8 ovarian): 6.29 µM | GI50 (HT29 colon): 3.04 µM | TGI (HT29 colon): 7.93 µM | GI50 (NCI/ADR-RES ovarian): 2.4 µM | TGI (NCI/ADR-RES ovarian): 6.96 µM | GI50 (MOLT-4 leukemia): 2.58 µM | TGI (MOLT-4 leukemia): 7.5 µM | GI50 (HCT-15 colon): 1.16 µM | TGI (HCT-15 colon): 5.01 µM | GI50 (UO-31 renal): 0.668 µM | TGI (UO-31 renal): 2.3 µM | GI50 (NCI-H460 lung): 2.14 µM | TGI (NCI-H460 lung): 5 µM | GI50 (CCRF-CEM leukemia): 3.08 µM | TGI (CCRF-CEM leukemia): 10.3 µM | GI50 (KM12 colon): 2.14 µM | TGI (KM12 colon): 4.85 µM | GI50 (RPMI-8226 leukemia): 2.67 µM | TGI (RPMI-8226 leukemia): 6.65 µM | GI50 (PC-3 prostate): 1.92 µM | TGI (PC-3 prostate): 6.13 µM | GI50 (OVCAR-5 ovarian): 1.63 µM | TGI (OVCAR-5 ovarian): 4.03 µM | GI50 (SF-268 CNS): 2.89 µM | TGI (SF-268 CNS): 12.3 µM | GI50 (RXF 393 renal): 2.03 µM | TGI (RXF 393 renal): 5.17 µM | GI50 (ACHN renal): 1.05 µM | TGI (ACHN renal): 2.43 µM | GI50 (SK-MEL-28 melanoma): 1.75 µM | TGI (SK-MEL-28 melanoma): 3.36 µM | GI50 (OVCAR-4 ovarian): 1.88 µM | TGI (OVCAR-4 ovarian): 5.3 µM | GI50 (786-0 renal): 2.34 µM | TGI (786-0 renal): 8.15 µM | GI50 (SNB-19 CNS): 2.68 µM | TGI (SNB-19 CNS): 8.95 µM | GI50 (A498 renal): 1.86 µM | TGI (A498 renal): 3.71 µM | GI50 (DU-145 prostate): 2.79 µM | TGI (DU-145 prostate): 10.3 µM | GI50 (MDA-MB-435): 1.99 µM | TGI (MDA-MB-435): 4.08 µM | GI50 (LOX IMVI melanoma): 2 µM | TGI (LOX IMVI melanoma): 4.5 µM | GI50 (M14 melanoma): 1.64 µM | TGI (M14 melanoma): 3.39 µM

Fc1ccc2c3c([nH]c2c1)CCN(Cc1ccccc1)C3
TGI (EKVX NSCLC): 48.7 µM | TGI (UACC-62 melanoma): 35.2 µM | TGI (HOP-92 NSCLC): 18.7 µM | TGI (MALME-3M melanoma): 35 µM | TGI (MDA-MB-231 breast): 43.8 µM | TGI (NCI-H226 lung): 39.5 µM | TGI (SR leukemia): 40.7 µM | TGI (SF-539 CNS): 39 µM | TGI (NCI-H23 lung): 42.4 µM | TGI (K-562 leukemia): 41 µM | TGI (COLO 205 colon): 39.4 µM | TGI (T-47D breast): 47.3 µM | TGI (HCT-116 colon): 32.9 µM | TGI (SK-OV-3 ovarian): 39.5 µM | TGI (SF-295 CNS): 27.9 µM | TGI (SW-620 colon): 40 µM | TGI (U251 CNS): 37.1 µM | TGI (IGROV1 ovarian): 42.5 µM | TGI (SNB-75 CNS): 32.9 µM | TGI (UACC-257 melanoma): 30.6 µM | TGI (SN12C renal): 35.4 µM | TGI (A549 NSCLC): 45.5 µM | TGI (HCC-2998 colon): 26 µM | TGI (MCF7 breast): 31.3 µM | TGI (HOP-62 NSCLC): 28.5 µM | TGI (SK-MEL-5 melanoma): 38.8 µM | TGI (HL-60(TB) leukemia): 37.6 µM | TGI (OVCAR-8 ovarian): 39.6 µM | TGI (HT29 colon): 47.9 µM | TGI (NCI/ADR-RES ovarian): 71 µM | TGI (MOLT-4 leukemia): 42.5 µM | TGI (HS 578T breast): 30.8 µM | TGI (HCT-15 colon): 36.5 µM | TGI (UO-31 renal): 25.6 µM | TGI (NCI-H460 lung): 33.1 µM | TGI (CCRF-CEM leukemia): > 100 µM | TGI (KM12 colon): 29 µM | TGI (RPMI-8226 leukemia): 77.2 µM | TGI (OVCAR-5 ovarian): 47.9 µM | TGI (SF-268 CNS): 49.2 µM | TGI (RXF 393 renal): 31 µM | TGI (ACHN renal): 47.3 µM | TGI (SK-MEL-28 melanoma): 30.3 µM | TGI (OVCAR-4 ovarian): 56.1 µM | TGI (786-0 renal): 30 µM | TGI (SNB-19 CNS): 30.8 µM | TGI (A498 renal): 31.7 µM | TGI (DU-145 prostate): 70.9 µM | TGI (MDA-MB-435): 34.3 µM | TGI (LOX IMVI melanoma): 33.5 µM | TGI (M14 melanoma): 34.5 µM
